Measurements: the NIST ThermoML archive (doi:10.1016/j.jct.2006.03.021)

Test: molar heat capacity at constant pressure
Conditions: 101.33 kPa, Crystal, Vacuum adiabatic calorimetry

O.OC[C@H]1O[C@@H](O[C@H]2O[C@H](CO)[C@@H](O)[C@H](O)[C@H]2O)[C@H](O)[C@@H](O)[C@@H]1O [α,β-trehalose monohydrate]
Conditions | molar heat capacity at constant pressure [J/K/mol]
12.15 K | 6.701
12.87 K | 6.35
13.89 K | 7.774
15 K | 9.56
15.06 K | 9.688
16.13 K | 11.54
17.15 K | 13.35
18.14 K | 15.21
19.1 K | 17.06
20 K | 18.85
20.02 K | 18.86
20.99 K | 20.81
21.98 K | 22.87
22.97 K | 24.93
23.99 K | 27.06
25.09 K | 29.37
26.28 K | 31.89
27.52 K | 34.52
28.79 K | 37.22
30 K | 39.76
30.14 K | 40.07
31.48 K | 42.93
32.83 K | 45.73
34.23 K | 48.62
35.64 K | 51.52
37.04 K | 54.43
38.44 K | 57.19
39.85 K | 59.97
40 K | 60.3
41.25 K | 62.71
42.67 K | 65.48
44.14 K | 68.28
45.66 K | 71.1
47.22 K | 74
48.83 K | 76.91
50 K | 78.98
50.46 K | 79.86
52.14 K | 82.8
53.84 K | 85.77
55.55 K | 88.73
56.47 K | 90.18
58.33 K | 93.36
60 K | 96.14
60.17 K | 96.48
62 K | 99.53
63.81 K | 102.56
65.62 K | 105.58
67.43 K | 108.53
69.25 K | 111.51
70 K | 112.73
71.08 K | 114.46
72.92 K | 117.44
74.76 K | 120.43
76.6 K | 123.41
78.42 K | 126.41
80 K | 128.94
80.24 K | 129.3
82.05 K | 132.24
83.88 K | 135.15
85.74 K | 138.11
87.62 K | 141.12
89.52 K | 144.11
90 K | 144.87
91.42 K | 147.15
93.33 K | 150.17
95.28 K | 153.24
97.28 K | 156.4
99.29 K | 159.5
100 K | 160.59
101.26 K | 162.58
103.21 K | 165.61
105.12 K | 168.61
107.01 K | 171.53
108.87 K | 174.41
110 K | 176.15
110.71 K | 177.24
112.52 K | 180.05
114.31 K | 182.82
116.08 K | 185.5
117.84 K | 188.16
119.57 K | 190.8
120 K | 191.54
121.29 K | 193.41
122.99 K | 196.08
124.68 K | 198.72
126.4 K | 201.25
128.14 K | 203.9
129.89 K | 206.59
130 K | 206.76
131.7 K | 209.4
133.54 K | 212.03
135.4 K | 214.95
137.31 K | 217.83
139.29 K | 220.87
140 K | 221.8
141.32 K | 223.89
143.36 K | 226.95
145.42 K | 229.87
147.49 K | 232.93
149.55 K | 235.92
150 K | 236.64
151.6 K | 238.94
153.65 K | 242.05
155.7 K | 244.94
157.76 K | 248.08
159.82 K | 250.99
160 K | 251.27
161.88 K | 253.84
163.94 K | 256.98
166.01 K | 260.01
168.09 K | 262.9
170 K | 265.74
170.15 K | 265.9
172.2 K | 268.93
174.23 K | 271.83
176.25 K | 274.9
178.26 K | 277.71
180 K | 280.12
180.26 K | 280.35
182.24 K | 283.42
184.22 K | 286.13
186.18 K | 288.99
188.13 K | 291.83
190 K | 294.51
190.07 K | 294.5
191.99 K | 297.33
193.92 K | 300.26
195.86 K | 302.94
197.82 K | 305.58
199.78 K | 308.6
200 K | 308.94
201.75 K | 311.51
203.73 K | 314.35
205.72 K | 317.15
207.72 K | 320.03
209.73 K | 323.23
210 K | 323.42
211.76 K | 326.07
213.79 K | 328.83
215.82 K | 331.74
217.85 K | 335.14
219.89 K | 337.71
220 K | 337.95
221.94 K | 340.79
223.97 K | 343.7
226.01 K | 346.53
228.06 K | 349.68
230 K | 352.54
230.09 K | 352.7
232.12 K | 355.67
234.16 K | 358.66
236.2 K | 361.46
238.24 K | 364.57
240 K | 367.19
240.3 K | 367.64
242.38 K | 370.71
244.44 K | 373.64
246.49 K | 376.59
248.54 K | 379.8
250 K | 381.89
250.58 K | 382.78
252.6 K | 385.78
254.62 K | 388.6
256.63 K | 391.62
258.63 K | 394.61
260 K | 396.69
260.63 K | 397.5
262.91 K | 400.41
264.59 K | 403.48
266.56 K | 406.35
268.52 K | 409.35
270 K | 411.55
270.48 K | 412.29
272.46 K | 415.5
274.46 K | 418.09
276.47 K | 421.07
278.49 K | 424.17
280 K | 426.56
280.52 K | 427.38
282.54 K | 430.46
284.56 K | 433.56
286.58 K | 436.49
288.58 K | 439.62
290 K | 441.71
290.63 K | 443
292.65 K | 445.73
294.68 K | 448.7
296.7 K | 451.81
298.15 K | 454.11
298.72 K | 454.95
300 K | 456.92
300.74 K | 457.97
